For test [1], the target named is T1, Plasmodium falciparum protein kinase 6 (PK6) (Plasmodium falciparum, UniProt Q8IDW1).
T1 construct: 6-Histidine (N); made in house
T1 sequence (Q8IDW1 1-305): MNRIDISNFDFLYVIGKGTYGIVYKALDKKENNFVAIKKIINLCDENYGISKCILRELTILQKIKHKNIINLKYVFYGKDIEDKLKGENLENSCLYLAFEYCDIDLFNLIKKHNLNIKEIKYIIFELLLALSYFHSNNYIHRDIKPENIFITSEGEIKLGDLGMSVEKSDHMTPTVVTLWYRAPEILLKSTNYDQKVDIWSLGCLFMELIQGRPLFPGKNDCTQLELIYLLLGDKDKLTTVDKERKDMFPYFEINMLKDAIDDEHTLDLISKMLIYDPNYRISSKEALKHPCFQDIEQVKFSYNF
The experiment in a line: biochemical. Particulars: hits below 1 uM; read-out: PK6 IC50.

Test [2] deals with T2, CHEK1 (Homo sapiens, UniProt O14757).
T2 sequence (O14757 1-476): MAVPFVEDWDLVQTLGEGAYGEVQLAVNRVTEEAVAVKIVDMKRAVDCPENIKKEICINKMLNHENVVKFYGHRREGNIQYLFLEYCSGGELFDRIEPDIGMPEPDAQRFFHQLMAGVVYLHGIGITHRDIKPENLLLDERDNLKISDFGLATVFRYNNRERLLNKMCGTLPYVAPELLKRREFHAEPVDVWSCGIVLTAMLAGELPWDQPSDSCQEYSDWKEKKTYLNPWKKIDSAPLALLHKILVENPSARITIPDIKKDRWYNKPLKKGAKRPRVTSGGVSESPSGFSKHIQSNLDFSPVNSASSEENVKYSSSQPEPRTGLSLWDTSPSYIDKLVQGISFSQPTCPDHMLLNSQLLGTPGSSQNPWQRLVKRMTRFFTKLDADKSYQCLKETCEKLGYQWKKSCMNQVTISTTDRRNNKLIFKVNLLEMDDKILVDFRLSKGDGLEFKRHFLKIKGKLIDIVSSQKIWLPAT
The experiment in a line: biochemical.

For test [3], the target named is TNK2 (Homo sapiens, UniProt Q07912). The experiment in a line: biochemical.
The target in test [4] is T3, NLK (Homo sapiens, UniProt Q9UBE8).
T3 sequence (Q9UBE8 1-527): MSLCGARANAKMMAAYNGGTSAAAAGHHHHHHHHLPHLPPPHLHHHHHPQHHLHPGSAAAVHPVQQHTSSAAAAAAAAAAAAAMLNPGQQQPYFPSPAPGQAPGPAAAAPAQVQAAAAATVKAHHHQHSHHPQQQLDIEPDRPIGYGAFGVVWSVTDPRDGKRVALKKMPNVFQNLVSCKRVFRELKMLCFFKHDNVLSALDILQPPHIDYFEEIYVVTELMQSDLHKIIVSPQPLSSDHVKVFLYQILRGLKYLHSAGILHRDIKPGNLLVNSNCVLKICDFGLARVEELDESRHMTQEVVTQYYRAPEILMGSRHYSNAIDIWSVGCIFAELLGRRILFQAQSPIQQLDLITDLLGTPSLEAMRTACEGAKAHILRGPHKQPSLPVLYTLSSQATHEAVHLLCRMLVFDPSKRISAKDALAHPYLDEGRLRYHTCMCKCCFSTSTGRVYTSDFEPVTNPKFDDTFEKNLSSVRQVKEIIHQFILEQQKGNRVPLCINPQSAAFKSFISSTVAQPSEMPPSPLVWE
The test is described as follows: biochemical.

Test [5] deals with PRKAA1 (Homo sapiens, UniProt Q13131). The test is described as follows: biochemical.
Test [6] deals with T4, STK4 (Homo sapiens, UniProt Q13043).
T4 sequence (Q13043 1-487): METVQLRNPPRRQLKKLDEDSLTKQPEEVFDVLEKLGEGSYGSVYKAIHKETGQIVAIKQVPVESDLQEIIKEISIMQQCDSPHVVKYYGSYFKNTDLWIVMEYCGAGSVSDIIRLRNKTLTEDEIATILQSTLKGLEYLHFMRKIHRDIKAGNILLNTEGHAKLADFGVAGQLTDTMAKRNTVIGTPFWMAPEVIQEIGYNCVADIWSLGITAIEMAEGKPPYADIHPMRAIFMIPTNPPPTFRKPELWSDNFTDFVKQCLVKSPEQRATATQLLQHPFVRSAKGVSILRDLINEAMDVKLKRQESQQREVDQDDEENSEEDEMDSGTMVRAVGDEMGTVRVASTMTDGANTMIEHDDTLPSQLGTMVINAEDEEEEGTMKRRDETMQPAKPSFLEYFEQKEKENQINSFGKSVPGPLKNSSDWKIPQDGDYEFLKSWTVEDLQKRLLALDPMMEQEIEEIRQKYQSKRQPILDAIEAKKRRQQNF
The test is described as follows: biochemical.

Test [7] addresses T5, Plasmodium falciparum calcium-dependent protein kinase 1 (CDPK1) (Plasmodium falciparum, UniProt P62344).
T5 construct: 6-Histidine (N); made in house
The experiment in a line: CDPK1 Kinase-Glo ATP-consumption screen and dose-response. Type of test: biochemical. The conditions noted are these: hits below 1 uM; read-out: CDPK1 IC50. In short, it runs like this:
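Single-point testing used 1 μM final compound, then dose-response, against CDPK4 and CDPK1 with Syntide-2 (40 μM) as substrate. After 90 min, reactions were halted by 5 mM EGTA, and kinase activity was inferred from depleted ATP via Kinase-Glo luminescence.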

The target of test [8] is CIT (Homo sapiens, UniProt O14578). The experiment in a line: biochemical. The conditions noted are these: read-out: KDapp. Further details: endogenous in cells; host or cells: K562 cell extract; species or system K562 (extract); replicate k of n = 2 (each experiment ID is one independent experiment; two experiment IDs per compound).
Test [9] addresses CAMK2A (Homo sapiens, UniProt Q9UQM7). The experiment in a line: biochemical.
In test [10] the target is PRKDC (Homo sapiens, UniProt P78527). The test is described as follows: biochemical.
The target of test [11] is MAP3K5 (Homo sapiens, UniProt Q99683). The test is described as follows: biochemical.

The values that follow come from paper PMC4774911, “Biochemical Screening of Five Protein Kinases from Plasmodium falciparum against 14,000 Cell-Active Compounds” (PLoS ONE, 2016).

Several values for one entry are separate records, joined by “and”; a condition that tells them apart may be missing. Equal entries are not always repeated. Where only a bound is given, the exact number is not on record here.

Chain of PRKAA1 (Q13131 whole entry): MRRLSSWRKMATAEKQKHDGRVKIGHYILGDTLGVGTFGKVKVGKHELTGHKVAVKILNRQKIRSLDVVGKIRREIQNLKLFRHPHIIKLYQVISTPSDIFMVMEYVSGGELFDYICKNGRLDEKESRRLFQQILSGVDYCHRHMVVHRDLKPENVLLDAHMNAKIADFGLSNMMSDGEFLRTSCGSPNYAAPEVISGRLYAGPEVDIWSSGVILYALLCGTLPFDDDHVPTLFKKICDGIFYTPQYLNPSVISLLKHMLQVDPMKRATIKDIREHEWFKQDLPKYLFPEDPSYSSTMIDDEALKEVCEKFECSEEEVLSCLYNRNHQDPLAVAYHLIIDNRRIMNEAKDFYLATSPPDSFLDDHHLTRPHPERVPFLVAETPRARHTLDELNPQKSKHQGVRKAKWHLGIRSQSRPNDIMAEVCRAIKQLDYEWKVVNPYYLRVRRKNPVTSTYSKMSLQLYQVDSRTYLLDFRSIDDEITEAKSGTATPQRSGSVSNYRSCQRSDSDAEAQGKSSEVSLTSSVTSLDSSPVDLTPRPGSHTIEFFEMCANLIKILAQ
Chain of CIT (O14578 whole entry): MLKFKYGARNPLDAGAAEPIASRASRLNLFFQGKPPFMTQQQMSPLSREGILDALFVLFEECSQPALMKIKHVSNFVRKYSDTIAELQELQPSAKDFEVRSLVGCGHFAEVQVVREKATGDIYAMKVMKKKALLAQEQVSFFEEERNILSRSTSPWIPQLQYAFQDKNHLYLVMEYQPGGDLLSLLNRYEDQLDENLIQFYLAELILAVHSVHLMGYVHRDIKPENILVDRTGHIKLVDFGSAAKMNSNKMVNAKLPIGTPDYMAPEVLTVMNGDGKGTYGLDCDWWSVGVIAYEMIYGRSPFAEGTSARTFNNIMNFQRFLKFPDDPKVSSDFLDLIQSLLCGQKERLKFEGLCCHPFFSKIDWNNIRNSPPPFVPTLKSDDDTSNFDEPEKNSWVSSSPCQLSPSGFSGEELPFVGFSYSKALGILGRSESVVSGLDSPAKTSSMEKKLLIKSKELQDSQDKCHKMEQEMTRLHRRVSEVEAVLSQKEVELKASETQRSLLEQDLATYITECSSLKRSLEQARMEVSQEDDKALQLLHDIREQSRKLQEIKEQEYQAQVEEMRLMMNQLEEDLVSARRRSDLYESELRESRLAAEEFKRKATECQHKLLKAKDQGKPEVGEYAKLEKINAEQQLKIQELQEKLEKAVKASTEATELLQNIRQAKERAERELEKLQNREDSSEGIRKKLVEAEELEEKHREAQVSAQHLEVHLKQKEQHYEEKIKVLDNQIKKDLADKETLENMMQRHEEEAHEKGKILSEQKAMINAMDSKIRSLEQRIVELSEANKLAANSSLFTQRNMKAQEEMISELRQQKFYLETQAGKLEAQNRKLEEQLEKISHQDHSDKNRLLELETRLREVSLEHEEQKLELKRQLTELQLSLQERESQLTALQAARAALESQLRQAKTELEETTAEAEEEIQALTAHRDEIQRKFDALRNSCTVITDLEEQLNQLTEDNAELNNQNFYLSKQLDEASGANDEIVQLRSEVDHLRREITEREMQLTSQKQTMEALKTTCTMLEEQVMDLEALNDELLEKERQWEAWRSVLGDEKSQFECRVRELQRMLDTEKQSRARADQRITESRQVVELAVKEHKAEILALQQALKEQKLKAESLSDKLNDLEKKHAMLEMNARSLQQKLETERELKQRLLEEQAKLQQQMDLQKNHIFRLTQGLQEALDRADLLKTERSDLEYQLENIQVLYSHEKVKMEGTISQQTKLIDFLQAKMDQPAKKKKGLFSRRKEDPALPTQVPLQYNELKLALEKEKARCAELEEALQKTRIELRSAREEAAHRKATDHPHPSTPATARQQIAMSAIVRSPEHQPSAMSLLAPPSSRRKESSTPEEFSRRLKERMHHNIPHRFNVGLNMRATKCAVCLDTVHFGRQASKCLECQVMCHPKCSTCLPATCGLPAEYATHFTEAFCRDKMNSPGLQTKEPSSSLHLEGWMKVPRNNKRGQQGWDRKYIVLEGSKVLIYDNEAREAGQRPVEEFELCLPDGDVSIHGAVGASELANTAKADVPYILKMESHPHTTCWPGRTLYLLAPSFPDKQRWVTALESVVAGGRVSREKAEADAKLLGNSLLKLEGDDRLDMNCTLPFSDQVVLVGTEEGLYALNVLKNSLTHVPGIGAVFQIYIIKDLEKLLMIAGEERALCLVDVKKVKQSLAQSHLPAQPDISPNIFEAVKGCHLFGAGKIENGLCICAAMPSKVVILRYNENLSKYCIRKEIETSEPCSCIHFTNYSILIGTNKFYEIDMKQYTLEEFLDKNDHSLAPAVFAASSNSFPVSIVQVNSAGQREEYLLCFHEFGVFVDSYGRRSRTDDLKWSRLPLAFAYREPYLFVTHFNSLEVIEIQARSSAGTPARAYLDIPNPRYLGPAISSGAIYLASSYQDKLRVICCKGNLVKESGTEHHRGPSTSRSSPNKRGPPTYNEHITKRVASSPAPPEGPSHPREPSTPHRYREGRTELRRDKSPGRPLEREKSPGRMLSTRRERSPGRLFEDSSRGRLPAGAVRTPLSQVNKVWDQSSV
Chain of MAP3K5 (Q99683 whole entry): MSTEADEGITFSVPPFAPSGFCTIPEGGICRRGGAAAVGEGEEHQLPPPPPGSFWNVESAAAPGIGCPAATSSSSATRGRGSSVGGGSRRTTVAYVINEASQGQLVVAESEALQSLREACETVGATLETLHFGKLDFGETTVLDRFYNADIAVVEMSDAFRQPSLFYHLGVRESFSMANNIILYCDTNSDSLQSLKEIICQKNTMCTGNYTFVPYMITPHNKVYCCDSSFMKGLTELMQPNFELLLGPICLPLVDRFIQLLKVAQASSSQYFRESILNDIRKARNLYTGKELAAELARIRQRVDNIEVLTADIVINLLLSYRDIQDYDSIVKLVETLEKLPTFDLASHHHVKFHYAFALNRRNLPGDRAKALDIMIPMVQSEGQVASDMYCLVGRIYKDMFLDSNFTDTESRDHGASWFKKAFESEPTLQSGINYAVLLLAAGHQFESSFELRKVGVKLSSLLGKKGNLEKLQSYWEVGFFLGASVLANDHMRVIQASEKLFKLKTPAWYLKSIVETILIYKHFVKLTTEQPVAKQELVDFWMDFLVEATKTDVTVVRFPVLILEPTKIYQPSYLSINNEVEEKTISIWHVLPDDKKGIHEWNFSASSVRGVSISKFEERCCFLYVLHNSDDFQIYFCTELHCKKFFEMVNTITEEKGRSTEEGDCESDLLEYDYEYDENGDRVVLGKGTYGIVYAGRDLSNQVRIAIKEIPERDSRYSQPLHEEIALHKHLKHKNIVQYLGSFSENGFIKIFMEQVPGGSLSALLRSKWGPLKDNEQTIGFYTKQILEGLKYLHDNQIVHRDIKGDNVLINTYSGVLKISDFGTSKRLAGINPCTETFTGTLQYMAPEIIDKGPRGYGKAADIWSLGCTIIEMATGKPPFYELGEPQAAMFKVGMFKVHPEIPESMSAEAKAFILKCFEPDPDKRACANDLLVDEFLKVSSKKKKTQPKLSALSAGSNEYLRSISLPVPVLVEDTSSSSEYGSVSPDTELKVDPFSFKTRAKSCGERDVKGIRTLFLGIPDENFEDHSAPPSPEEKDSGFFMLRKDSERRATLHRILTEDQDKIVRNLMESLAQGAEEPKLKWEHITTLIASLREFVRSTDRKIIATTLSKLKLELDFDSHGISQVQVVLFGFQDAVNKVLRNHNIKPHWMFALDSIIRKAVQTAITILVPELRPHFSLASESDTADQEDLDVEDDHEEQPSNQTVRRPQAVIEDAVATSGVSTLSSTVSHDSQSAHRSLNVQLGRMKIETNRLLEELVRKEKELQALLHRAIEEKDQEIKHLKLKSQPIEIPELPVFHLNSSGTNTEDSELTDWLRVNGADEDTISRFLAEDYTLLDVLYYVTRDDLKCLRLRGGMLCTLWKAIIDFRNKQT
T5 sequence (P62344 whole entry): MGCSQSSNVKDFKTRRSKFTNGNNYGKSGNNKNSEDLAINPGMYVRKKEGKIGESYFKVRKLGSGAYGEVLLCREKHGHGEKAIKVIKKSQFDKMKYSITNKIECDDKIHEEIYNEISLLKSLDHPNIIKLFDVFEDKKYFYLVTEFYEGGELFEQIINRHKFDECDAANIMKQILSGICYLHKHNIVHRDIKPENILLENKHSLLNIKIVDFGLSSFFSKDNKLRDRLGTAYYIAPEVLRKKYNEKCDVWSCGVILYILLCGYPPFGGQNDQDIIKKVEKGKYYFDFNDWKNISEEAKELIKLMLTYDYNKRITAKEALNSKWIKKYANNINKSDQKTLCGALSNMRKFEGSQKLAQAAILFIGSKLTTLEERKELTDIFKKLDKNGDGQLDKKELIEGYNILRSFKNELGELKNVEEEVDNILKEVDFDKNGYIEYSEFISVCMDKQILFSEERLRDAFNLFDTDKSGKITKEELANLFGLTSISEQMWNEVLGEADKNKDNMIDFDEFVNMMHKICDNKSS
Chain of CAMK2A (Q9UQM7 whole entry): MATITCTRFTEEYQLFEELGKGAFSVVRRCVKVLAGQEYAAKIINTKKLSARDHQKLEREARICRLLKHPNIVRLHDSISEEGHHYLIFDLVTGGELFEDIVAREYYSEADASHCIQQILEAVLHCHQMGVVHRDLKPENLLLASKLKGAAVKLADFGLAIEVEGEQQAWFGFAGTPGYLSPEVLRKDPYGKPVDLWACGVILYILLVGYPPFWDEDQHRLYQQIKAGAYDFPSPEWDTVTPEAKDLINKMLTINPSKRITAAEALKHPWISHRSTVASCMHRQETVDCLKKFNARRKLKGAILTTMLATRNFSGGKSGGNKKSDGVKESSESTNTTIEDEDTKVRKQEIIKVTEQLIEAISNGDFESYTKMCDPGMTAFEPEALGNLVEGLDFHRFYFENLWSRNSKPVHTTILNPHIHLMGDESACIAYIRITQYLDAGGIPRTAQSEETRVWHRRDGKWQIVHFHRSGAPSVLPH

As for `CN1CCN(c2ccc(Nc3ncc(C#N)c(Nc4ccccc4C(N)=O)n3)cc2)CC1.Cl` [TCMDC-134116], the IC50 in test [1] was 89 nM; in test [2], 220 nM; in [3], 160 nM; in [4], 1600 nM and 1500 nM; in test [5], 38 nM and 49 nM; in [6], 190 nM and 220 nM. The IC50 in [7] came to 12 nM. Besides, the Kd in test [8] was 4860 nM and 4950 nM.

In the case of `Cl.NCC1(c2nc(-c3ccc(Cl)c(O)c3)c(-c3ccncc3)[nH]2)CCCCC1` [TCMDC-141154], the IC50 in [2], in test [9], in test [3], in test [10], in test [11] and in [6] was more than 20000 nM throughout. In [7], the IC50 amounted to 14 nM. Further, the Kd in test [8] was 137 nM and 239 nM.

Take `CN(C)CC(O)COc1ccc(Nc2ncc([N+](=O)[O-])c(Nc3ccccc3O)n2)cc1.O=C(O)C(F)(F)F` (centres unmarked) [TCMDC-141399]: the IC50 was 67 nM in test [1]; more than 20000 nM in [9]; more than 20000 nM in test [10]; more than 20000 nM in [11]; more than 20000 nM in test [4]; 7100 nM and 7700 nM in test [5]. Besides, the Kd in [8] worked out at 3750 nM.
